pIC50: −log10 of the molar value.
Key:
HUVEC = assay type: cell-based, human
Text: The cellular mechanisms of angiogenesis involve motility and alignment of ECs to form a capillary tube-like network on matrigel. Thus, we assessed whether or not apoEdp impaired EC differentiation in the tube formation assay as described in the Materials and Methods. The numbers of tubular structures (Fig. 3A) were quantitatively analyzed. […] “Percentage (%) of inhibition” in Fig. 3C is the mean number (± SEM) of tubules expressed as a proportion of that in the VEGF control group. ** p<0.01 and *** p<0.001.
Figure 3 ApoEdp inhibited capillary tubule formation (in vitro angiogenesis). […] Tubular structures were quantitated by manual counting under low power fields. […] (C) “Percentage (%) of inhibition” is the mean number (± SEM) of tubules expressed as a proportion of that in the VEGF control group. ** p<0.01 and *** p<0.001. […]
Matrigel (Sigma Aldrich, St Louis, MO) was thawed overnight on ice. […] After 12–16 hr, microtubule formation was assessed with an inverted photomicroscope and the images were photographed using Olympus U-RLF-T microscope. Manual counting at low power fields was used to quantitate tubular structures and percentage of inhibition was expressed using VEGF control wells as 100%.

[1] = test system: VEGF-induced corneal angiogenesis; assay: Rabbit corneal micropocket assay (VEGF-induced angiogenesis); assay type: in vivo; details: 160 ng VEGF pellet, topical 1% eye drops 50 µL 5 times per day for 5 days, compared to saline treated eyes
Description: To study the in vivo anti-angiogenic effect of apoEdp, we assessed its inhibitory effect on VEGF-induced corneal micro-pocket assay in rabbit eye model. The slow release micropellet (500 µm×500 µm) of 0.4 g of Compritol 888 ATO (Gattefosse) combined with 0.1 g of Squalane oil (Sigma) and 20 mg/mL L-α-phosphatidylcholine containing saline or 160 ng of VEGF were surgically implanted in the corneal micropocket created in the avascular area of rabbit cornea (Fig. 5A–B).
Figure 5 ApoEdp inhibits angiogenesis in rabbit corneal micropocket assay. Slow-releasing micro pellets (500 µm×500 µm) containing 160 ng of VEGF were corneally implanted in New Zealand white rabbits (1.5–2.5 kg). […] (A)The area of neovascular response, vessel length, and clock hours of new blood vessel of rabbits in each group were calculated according to the formula Area (mm^2) = C/12×3.1416 [r^2−(r−L)^ 2] where C = the number of clock hours at the limbus involved in the neovascular response, L = length of the longest neovascular pedicle from the limbus onto anterior cornea, and r = radius of the cornea. […]
Corneal micropockets were created with a modified von Graefe cataract knife in eyes of each […] NZ white rabbit. […] The area of neovascular response, vessel length, and clock hours of new blood vessels of the rabbits in each group were calculated according to the formula [55]. […]

[2] = test system: VEGF-induced phosphorylation of Flk1, c-Src, Akt, eNOS, FAK, Erk1/2 in HUVECs; assay: Western blot of VEGF-induced phosphorylation of angiogenic signaling molecules; assay type: cell-based, human; details: HUVEC, apoEdp 6–50 µM pre-treated 1 hr, VEGF 10 ng/mL 10 min, n = 5
Description: Figure 7 Inhibition by apoEdp of VEGF-induced Flk-1. HUVECs were pre-treated with apoEdp at the indicated concentrations for 1 hr; VEGF (10 ng/mL) added and incubated at 37°C for 10 min, to measure the phosphorylation of Flk-1(7-A), c-Src(7-B), Akt(7-C), eNOS(7-D), FAK(7-E), and Erk1/2(7-F). Equal loading of total proteins was also measured as described in Materials and Methods. Values were normalized by arbitrarily setting the densitometry of control cell signals 1.0 (mean ± SEM, n = 5). The asterisks indicate significant differences compared with VEGF stimulation (*p<0.05, **p<0.01 and ***p<0.001).
Confluent HUVECs were grown in EBM-2 supplemented with 1% FBS for 24 hr and the medium was replaced with fresh low serum (1% FBS) media in the presence or absence of varying concentrations of apoEdp (6–50 µM). After 1 hr, VEGF was added to a concentration of 10 ng/mL and incubated for 10 min so that the phosphorylated forms of angiogenic signaling molecules could be detected. The cells were then lysed, quantified for protein concentration, and separated on 4–20% pre-cast SDS–PAGE gels. Western blots of control and treated lysates were performed with antibodies against the phospho form of Flk-1, c-Src, FAK, ERK1/2, Akt, and eNOS. […] All primary and secondary antibodies were obtained from Santa Cruz Biotechnology (Santa Cruz, CA).

Ac-LRKLRKRLLLRKLRKRLL-NH2 [apoEdp]
pIC50 (HUVEC): 5.05 | VEGF-induced angiogenesis in rabbit corneal micropocket [1]: significantly inhibited VEGF-induced angiogenesis | VEGF-induced phosphorylation of Flk1, c-Src, Akt, eNOS, FAK and Erk1/2 [2]: significantly inhibited
